Earlier results on seven compounds are cited in US9238023B2, “Methods for improving health in humans” (Quality IP Holdings, LLC, priority 2012, dated 2016).

The test system of one data set is hGH. As to conditions: for effect on hGH: other amino acids, literature.
Another data set relates to GH. The following applies: subcutaneous injection of 0.06 IU, GH deficient subjects.

Consider `N=C(N)NCCC[C@H](N)C(=O)O` [arginine], for which the “elevation of serum hGH levels” value in the data set with hGH (30 g, males) is recorded as 8.6 fold. For the same compound, the “increase of hGH levels” value with hGH (intravenous infusion 183 mg/kg body weight, females) is listed as above 20 fold.

Consider “HGH: human growth hormone, subcutaneous injection in the treatment of GH deficient subjects”, for which the “mean levels of GH reached” value in the data set on GH was 0.4 ng/mL.

Consider `CSCC[C@H](N)C(=O)O` [methionine], for which the “effect on hGH” value with hGH was “marked increases in hGH”.

With `N[C@@H](Cc1c[nH]cn1)C(=O)O` [histidine], the “effect on hGH” value in the data set with hGH was “marked increases in hGH”.

In the case of `NCCCC[C@H](N)C(=O)O` [lysine], the “effect on hGH” value with hGH is given as “marked increases in hGH”.

With `NCCC[C@H](N)C(=O)O` [ornithine], the “effect on hGH” value in the data set with hGH was “marked increases in hGH”.

Turning to `N[C@@H](Cc1ccccc1)C(=O)O` [phenylalanine], the “effect on hGH” value in the data set on hGH is “marked increases in hGH”.
